From patent publication US6794396B2, “Substituted pyridines useful for inhibiting cholesteryl ester transfer protein activity” (Pharmacia Corporation, priority 1998, dated 2004)
Several values for one entry are separate records, joined by “and”; a condition that tells them apart may be missing. Equal values may be shown once.

Columns and labels:
[1] = target: T1, CETP (Homo sapiens, UniProt P11597); test: CETP activity in vitro: transfer of [3H]CE from HDL donor to LDL acceptor particles; type: biochemical; details: Table 5, compounds of formula T-5; read-out: IC50
T1 construct: made in house; host or cells: CHO cells (serum-free conditioned medium)
T1 sequence (P11597 18-493): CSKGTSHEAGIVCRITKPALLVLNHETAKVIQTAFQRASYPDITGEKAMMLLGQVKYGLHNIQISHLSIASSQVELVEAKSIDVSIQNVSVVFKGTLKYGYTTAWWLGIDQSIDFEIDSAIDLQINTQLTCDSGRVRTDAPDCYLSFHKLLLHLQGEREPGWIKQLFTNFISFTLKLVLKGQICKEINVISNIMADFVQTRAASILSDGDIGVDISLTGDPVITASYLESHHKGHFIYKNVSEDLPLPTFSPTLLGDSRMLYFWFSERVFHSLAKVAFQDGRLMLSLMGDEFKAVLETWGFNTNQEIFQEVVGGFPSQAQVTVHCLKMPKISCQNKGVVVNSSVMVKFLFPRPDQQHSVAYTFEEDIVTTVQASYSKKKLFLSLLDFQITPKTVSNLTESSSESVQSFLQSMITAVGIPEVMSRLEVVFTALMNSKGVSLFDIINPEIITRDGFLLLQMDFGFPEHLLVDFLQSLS
Procedure, shortened: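 CETP from conditioned medium of CETP-transfected CHO cells incubated with [3H]CE-labelled HDL donor and LDL acceptor, pH 7.4 Tris buffer with NaCl, EDTA and 1% BSA, 2 h at 37 °C. LDL precipitated with dextran sulfate/MgCl2, filtered, and transferred radioactivity counted; IC50 reported.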

[2] = test system: CETP; test: Inhibition of CETP activity in vivo: [3H]CE transfer from HDL to VLDL and LDL after intravenous injection; design: species or system golden Syrian hamster; details: hamsters, injection into jugular vein; for % Inhibition of CETP activity: versus control animals
Source text: Inhibition of CETP by a test compound can be determined by administering the compound to an animal by intravenous injection, determining the rate of transfer of tritium-labeled cholesteryl ester (^3H]CE) from HDL to VLDL and LDL particles, and comparing the rate of transfer with the rate of transfer observed in control animals.
Male golden Syrian hamsters were maintained on a diet of chow containing 0.24% cholesterol for at least two weeks prior to the study. Immediately before the experiment, animals were anesthetized with pentobarbital. Anesthesia was maintained throughout the experiment. Indwelling catheters were inserted into the jugular vein and carotid artery. Test compound, Dimethyl 5,5′-dithiobis[2-difluoromethyl)-4-(2-methylpropyl)-6-(trifluoromethyl)-3-pyridinecarboxylate] (Compound 181), was dissolved as a 80 mM stock solution in vehicle (2% ethanol: 98% PEG 400, Sigma Chemical Company, St. Louis, Mo., USA). At the start of the experiment all animals received 0.2 ml of a solution containing [^3H]-CE-HDL into the jugular vein. [^3H[-CE-HDL is a preparation of human HDL containing tritium-labeled cholesteryl ester, and was prepared according to the method of Glenn et al. (“Quantification of Cholesteryl Ester Transfer Protein (CETP): A) CETP Activity and B) Immunochemical Assay of CETP Protein,” Meth. Enzymol., Glenn and Melton (Meth. Enzymol., 263, 339-351 (1996) which is incorporated herein by reference).
After 2 minutes, the animals received 0.1 ml of the test solution injected into the jugular vein. Control animals received 0.1 ml of the vehicle solution without test compound. After 5 minutes, the first blood samples (0.5 ml) were taken from the carotid artery and collected in standard microtainer tubes containing ethylenediamine tetraacetic acid. Saline (0.5 ml) was injected to flush the catheter and replace blood volume. Subsequent blood samples were taken at two hours and four hours by the same method. Blood samples were mixed well and kept on ice until the completion of the experiment.
Plasma was obtained by centrifugation of the blood samples at 4° C. The plasma (50 μl) was then treated with 5 μl of precipitating reagent (dextran sulfate, 10 g/l; 0.5M magnesium chloride to remove VLDL/LDL. After centrifugation, the resulting supernatant (25 μl) containing the HDL was analyzed for radioactivity using a liquid scintillation counter. The percentage [^3H] CE transferred from HDL to LDL and VLDL (% transfer) was calculated based on the total radioactivity in equivalent serum samples before precipitation. Typically, the amount of transfer from HDL to LDL and VLDL in control animals was 30 to 35% after four hours. The polyethylene glycol vehicle was determined to have no effect on CETP activity in this model.
(Compound 181), and five animals that received vehicle. At two hours, mean values of 13% [^3H]-Ce transfer from HDL to LDL and VLDL were obtained for the control animals, but only 4.7% transfer for the animals receiving Compound 181. […] Student t-tests were performed to determine if the means for control and animals treated with Compound 181 were statistically different.

[3] = test system: CETP; test: Ex vivo CETP activity assay on serum of chronically infused hamsters; type: in vivo, golden Syrian hamster
Source text: Chronic inhibition of CETP can be achieved by administration of Dimethyl 5,5′-dithiobis[2-difluoromethyl)-4-(2-methylpropyl)-6-(trifluoromethyl)-3-pyridinecarboxylate] (Compound 181) to hamsters using Alzet pump delivery of Compound 181 into the jugular veins of hamsters. Inhibition of CETP should lead to an increase in HDL cholesterol with a concomitant decrease in LDL cholesterol. This can be determined by filtering serum obtained at different time intervals after initiation of inhibitor infusion and quantitating the amount of cholesterol in the LDL and HDL peaks, respectively. In addition the activity of CETP in the serum can be assessed in an ex vivo CETP activity assay.
Serum cholesterol profiles were determined on pooled sera from each group. Total serum cholesterol and CETP activity were determined on individual serum samples. In hamsters administered Compound 181 chronically, there was a 30% reduction and 26% increase in LDL cholesterol and HDL cholesterol concentrations, respectively, compared to the vehicle group at Day 5. The decrease in LDL and increase in HDL persisted until Day 8 when the Alzet pump was exhausted. […] Therefore, it would appear that for every percent reduction in CETP activity determined by the ex vivo assay, there was a 2-3% decrease in LDL cholesterol or increase in HDL cholesterol concentrations.

- IC50 [1]: 1500 nM
Structure (SMILES): COC(=O)c1c(C(F)F)nc(C(F)(F)F)c(SSc2c(C(F)(F)F)nc(C(F)F)c(C(=O)OC)c2CC(C)C)c1CC(C)C [Compound 181, Dimethyl 5,5′-Dithiobis[2-(difluoromethyl)-4-(2-methylpropyl)-6-(trifluoromethyl)-3-pyridinecarboxylate]]
- % Transfer of [3H]-CE from HDL to LDL and VLDL ([2]; four hours): 10.6%
- % Inhibition of CETP activity ([2]; four hours): 50.8%
- % Transfer of [3H]-CE from HDL to LDL and VLDL ([2]; two hours): 4.7%
- % Inhibition of CETP activity ([2]; two hours): 64% and 63.6%
- average reduction in CETP activity by ex vivo assay ([3]; Days 5 and 8): 10%
- CETP activity by ex vivo assay ([3]; day 12): return to vehicle control level
